Patent US20050032724A1 (priority 2001, published 2005)
Entries after “also recorded” stand apart in the source; their conditions may differ. Like-named read-outs stand apart in the source and are kept apart here.

Experiments:
[1] = test system: human epithelial cervical cancer cell line KB 3-1; type: cell-based
Procedure: (§1) The human epithelial cervical cancer cell line KB 3-1 with two subclones (KB 3-1 (MDR1^+++) and KB 3-1 (MDR1^+++, CYP3A5)) and the bladder cancer cell line RT112, also with subclone (RT112 (MDR1^+, UGT1A1)), were cultured in Dulbecco's Modified Eagle Medium (DMEM) including 3.7 g/l NaHCO3, 4.5 g/l D-Glucose, 1.028 g/l N-Acetyl-L-Alanyl-L-glutamine and supplemented with 10% fetal bovine, 1 mM Na-pyruvate and 1% non-essential amino acids. The human colon cancer cell line LS174T was cultured in Dulbecco's modified Eagle medium containing L-glutamine, pyridoxine hydrochloride and 25 mM Hepes buffer without phenol red, supplemented with 10% fetal bovine, 1 mM Na-pyruvate and 1% non-essential amino acids. All cells were incubated at 37° C. with 5% CO2 in a humidified atmosphere.
(§2) Lower concentrated dilutions were prepared in PBS and cell culture medium.
(§3) Cells were seeded in 96-well culture plates 24 h prior to treatment. With respect to differential growth rates KB 3-1 and RT112 cells were seeded at 700 cells/well, RT112 (MDR1^+, UGT1A1) at 1000 cells/well and KB 3-1 (MDR1^+++) and KB 3-1 (MDR1^+++, CYP3A5) at 1200 cells/well. LS174T were seeded at 1.0×10^4 cells/well. […] Four well were treated with the same drug dilution. Cells were incubated for 3 days at 37° C. in a humidified 5% CO2 atmosphere.
(§4) A commercially available MTS assay system (Promega, Madison, USA) was used to determine growth inhibition and cell death according to the instructions of the manufacturer. Three days after adding the drugs, 20 μl of the combined MTS/PMS solution was added to each well of the 96-well culture plate. The plate was incubated for at least 45 min at 37° C. in a humidified 5% CO2 atmosphere and the absorbance at 492 nm was measured. The absorbance values of untreated control cells on each plate were set as 100% growth and used to calculate the remaining growth of drug treated cells. Untreated cells on the culture plates served as controls for unaffected growth and survival.
(§5) The drug concentration effecting a 50% inhibition of cell growth was defined as the IC50.

MRP1 mRNA = MRP1 mRNA content in duodenal biopsies before and after rifampicin; type: in vivo, human; details: healthy volunteers
[2] = Clinical study of peak plasma digoxin levels at steady state by MDR1 3435C>T genotype; type: in vivo, human; details: 14 healthy volunteers, oral digoxin, p=0.006 Mann Whitney U test
From the text: Furthermore, the influence of the MDR1 genotype on intestinal uptake-related pharmacokinetics of digoxin was investigated in a clinical study at the University Medical Center, Charite in Berlin. Maximal digoxin blood levels (Cmax) at steady state were correlated with the MDR1 3435C>T genotype 14 healthy volunteers after oral application of digoxin. […] (p=0.006, Mann Whitney U test) and reflects the impact of this polymorphism on digoxin pharmacokinetics.

KB 3-1 (MDR1^+++) cells = test system: KB 3-1 (MDR1^+++) cells
Procedure: as §1, §2, §3, §4, §5

[3] = test system: RT112 (MDR1, UGT1A1) cells; details: for IC50 (50% inhibition of cell growth): RT112 (MDR1, UGT1A1), 3 days treatment
Procedure: as §1, §2, §3, §4, §5

[4] = test system: KB 3-1 (MDR1^+++, CYP3A5) cells
Procedure: as §1, §2, §3, §4, §5

[5] = test system: human colon cancer cell line LS174T; experiment: MTS cytotoxicity assay, growth inhibition, LS174T; type: cell-based; details: for IC50 (50% inhibition of cell growth): LS174T, 3 days treatment
Procedure: as §1, §2, §3, §4, §5

[6] = test system: bladder cancer cell line RT112; experiment: MTS cytotoxicity assay, growth inhibition, RT112; type: cell-based, human; details: RT112, 3 days treatment
Procedure: as §1, §2
Cells were seeded in 96-well culture plates 24 h prior to treatment. […]
as §4, with “Three days after adding the drugs, 20 μl of the combined MTS/PMS solution was added to each well of the 96-well culture plate.” left out, “Untreated cells on the culture plates served as controls for unaffected growth and survival.” left out

[7] = within the first 60 days of treatment, colorectal cancer trials; cited from earlier work
[8] = irinotecan therapy, dose-limiting toxicity; cited from earlier work
[9] = mass balance studies; cited from earlier work

COc1ccc(CCN(C)CCC[C@](C#N)(c2ccc(OC)c(OC)c2)C(C)C)cc1OC [R-Verapamil]
effect of addition of R-Verapamil on CPT-11 and SN-38 sensitivity [1]: only marginal effects

CO[C@H]1/C=C/O[C@@]2(C)Oc3c(C)c(O)c4c(O)c(c(/C=N/N5CCN(C)CC5)c(O)c4c3C2=O)NC(=O)/C(C)=C\C=C\[C@H](C)[C@H](O)[C@@H](C)[C@@H](O)[C@@H](C)[C@H](OC(C)=O)[C@@H]1C [rifampicin]
effect of rifampicin treatment on MRP1 mRNA expression (MRP1 mRNA): no effect

C[C@H]1O[C@@H](O[C@H]2[C@@H](O)C[C@H](O[C@H]3[C@@H](O)C[C@H](O[C@H]4CC[C@@]5(C)[C@H](CC[C@@H]6[C@@H]5C[C@@H](O)[C@]5(C)[C@@H](C7=CC(=O)OC7)CC[C@]65O)C4)O[C@@H]3C)O[C@@H]2C)C[C@H](O)[C@@H]1O [digoxin]
Maximal digoxin blood levels (Cmax) at steady state, homozygous T vs C/C MDR1 3435C>T genotype [2]: statistically significantly different; also recorded: statistically significantly lower

CCc1c2c(nc3ccc(O)cc13)-c1cc3c(c(=O)n1C2)COC(=O)[C@]3(O)CC [SN-38, 7-ethyl-10-hydroxycamptothecin]
IC50 (50% inhibition of cell growth) [1]: 0.025 µg/mL
IC50 with R-Verapamil [1]: 15 ng/m
IC50 (50% inhibition of cell growth) (KB 3-1 (MDR1^+++) cells): 0.2 µg/mL
higher sensitivity after inhibition of MDR1 transport function with R-Verapamil (KB 3-1 (MDR1^+++) cells): 10 fold
increase of IC50 relative to KB 3-1 (KB 3-1 (MDR1^+++) cells): at least 8 times
sensitivity with R-Verapamil (KB 3-1 (MDR1^+++) cells): as sensitive as KB 3-1 cells
higher resistance of RT112 (MDR1, UGT1A1) relative to RT112 [3]: 19 fold
IC50 (50% inhibition of cell growth) [3]: 0.075 µg/mL
IC50 (50% inhibition of cell growth) [4]: > 0.2 µg/mL
IC50 (50% inhibition of cell growth) [5]: 0.005 µg/mL
efficacy relative to CPT-11 (growth inhibition and cell death) ([5]; stated for LS174T, RT112 and KB 3-1 together): 1000 fold
IC50 (50% inhibition of cell growth) [6]: 0.004 µg/mL

irinotecan [CPT-11]
increase of irinotecan toxicity-related mortality [7]: ~3 times
IC50 with R-Verapamil ([1]; KB 3-1, 3 days, with R-Verapamil 10 μg/ml): 4.5 µg/mL
IC50 (50% inhibition of cell growth) ([1]; KB 3-1, 3 days, without R-Verapamil): 5 µg/mL
diarrhea, occurrence in patients [8]: up to 88%
IC50 with R-Verapamil (KB 3-1 (MDR1^+++) cells; KB 3-1 (MDR1+++), 3 days, with R-Verapamil 10 μg/ml): 10 µg/mL
IC50 (50% inhibition of cell growth) (KB 3-1 (MDR1^+++) cells; KB 3-1 (MDR1+++), 3 days, without R-Verapamil): 85 µg/mL
IC50 of RT112 (MDR1, UGT1A1) compared to RT112 cells ([3]; RT112 (MDR1, UGT1A1) vs RT112, in words): two-times higher
IC50 (50% inhibition of cell growth) [3]: 4 µg/mL
IC50 (50% inhibition of cell growth) [5]: 1.5 µg/mL
IC50 (50% inhibition of cell growth) [6]: 2.5 µg/mL
total dose excreted in the feces [9]: 64%
